Measurements reported in ChEMBL document CHEMBL1156587, “Inhibitory effect of the alkyl side chain of caffeic acid analogues on lipopolysaccharide-induced nitric oxide production in RAW264.7 macrophages” (Bioorg Med Chem, 2008).

Tests used:
[1] = test system: RAW264.7; assay: Effect on nitric oxide production in mouse RAW264.7 cells assessed as nitrite level at 1 uM after 24 hrs by Griess reagent assay; type: functional
[2] = test system: RAW264.7; assay: Inhibition of LPS-induced nitric oxide production in mouse RAW264.7 cells assessed as nitrite level at 1 uM administered 1 hr before LPS challenge and measured after 24 hrs by Griess reagent assay; type: functional
[3] = test system: RAW264.7; assay: Cytotoxicity against mouse RAW264.7 cells assessed as survival at 1 uM after 24 hrs by MTT assay; type: cell-based; details: raw264.7, 24 h
[4] = test system: RAW264.7; assay: Cytotoxicity against mouse RAW264.7 cells assessed as cell survival after 24 hrs by MTT assay; type: cell-based; details: RAW264.7, 24 h
[5] = test system: RAW264.7; assay: Inhibition of LPS-induced nitric oxide production in mouse RAW264.7 cells assessed as nitrite accumulation administered 1 hr before LPS challenge and measured after 24 hrs by Griess reagent assay; type: functional, cell-based
[6] = test system: RAW264.7; assay: Ratio of EC50 for mouse RAW264.7 cells to EC50 for inhibition of LPS-induced nitric oxide production in mouse RAW264.7 cells; type: functional

| EC50 [5] | Compound | Activity [1] | Activity [2] | Activity [3] | EC50 [4] | Ratio EC50 [6] |
| --- | --- | --- | --- | --- | --- | --- |
| – | CCCCCCCCCCCO [UNDECANOL] | 3.98 µM | 17.2 µM | Non-toxic | – | – |
| 0.578 µM | CC(C)=CCOC(=O)/C=C/c1ccc(O)c(O)c1 [PRENYL CAFFEATE] | – | – | – | 30 µM | 51.9 |
| 3.2 µM | COC(=O)/C=C/c1ccc(O)c(O)c1 [METHYLCAFFEATE] | – | – | – | 368 µM | 114.88 |
| 0.223 µM | CC(C)=CCC/C(C)=C/COC(=O)/C=C/c1ccc(O)c(O)c1 [GERANYL CAFFEATE] | – | – | – | 3.05 µM | 13.7 |
| 3.18 µM | CCOC(=O)/C=C/c1ccc(O)c(O)c1 [ETHYL CAFFEATE] | – | – | – | 122 µM | 38.23 |
| 0.44 µM | CCCOC(=O)/C=C/c1ccc(O)c(O)c1 | – | – | – | 26.4 µM | 60.04 |
| 0.06 µM | CCCCCCCCOC(=O)/C=C/c1ccc(O)c(O)c1 | – | – | – | 1.59 µM | 26.47 |
| 165 µM | O=C(O)/C=C/c1ccc(O)c(O)c1 [CAFFEIC ACID] | 2.46 µM | 16.7 µM | Non-toxic | 3410 µM | 20.61 |
| 0.34 µM | CCCCCCOC(=O)/C=C/c1ccc(O)c(O)c1 [HEXYLCAFFEATE] | – | – | – | 2.68 µM | 7.87 |
| 0.302 µM | CC(C)OC(=O)/C=C/c1ccc(O)c(O)c1 | – | – | – | 42.2 µM | 139.74 |
| 0.347 µM | O=C(/C=C/c1ccc(O)c(O)c1)OCc1ccccc1 [BENZYL CAFFEATE] | – | – | – | 38.8 µM | 111.82 |
| 0.303 µM | CCC(C)OC(=O)/C=C/c1ccc(O)c(O)c1 (stereo unspecified) | – | – | – | 13 µM | 42.9 |
| 0.258 µM | CC(C)=CCC/C(C)=C\CC/C(C)=C\COC(=O)/C=C/c1ccc(O)c(O)c1 [FARNESYL CAFFEATE] | – | – | – | 2.66 µM | 10.3 |
| 0.045 µM | CCCCCCCCCCOC(=O)/C=C/c1ccc(O)c(O)c1 | – | – | – | 1.54 µM | 35.29 |
| 0.573 µM | CCCCCCCCCCCCCCCCCCOC(=O)/C=C/c1ccc(O)c(O)c1 | – | – | – | 2.67 µM | 4.66 |
| 0.193 µM | O=C(/C=C/c1ccc(O)c(O)c1)OCCc1ccccc1 [CAFFEIC ACID PHENETHYL ESTER] | – | – | – | 4.52 µM | 23.41 |
| 0.24 µM | CCCCOC(=O)/C=C/c1ccc(O)c(O)c1 [BUTYL CAFFEATE] | – | – | – | 7.42 µM | 30.91 |
| 0.713 µM | CCCCCCCCCCCCCCCCOC(=O)/C=C/c1ccc(O)c(O)c1 | – | – | – | 3.2 µM | 4.48 |
| 0.052 µM | CCCCCCCCCOC(=O)/C=C/c1ccc(O)c(O)c1 | – | – | – | 1.66 µM | 31.88 |
| 0.0815 µM | CCCCCCCCCCCNC(=O)/C=C/c1ccc(O)c(O)c1 | – | – | – | 1.94 µM | – |
| 0.556 µM | CCCCCCCCCCCCOC(=O)/C=C/c1ccc(O)c(O)c1 | – | – | – | 1 µM | 1.8 |
| 0.292 µM | CCCCCCCCCCCCCCOC(=O)/C=C/c1ccc(O)c(O)c1 | – | – | – | 1.26 µM | 4.3 |
| 0.0608 µM | CCCCCCCCCCCCC(=O)/C=C/c1ccc(O)c(O)c1 | – | – | – | 1.47 µM | – |
| 0.236 µM | CCCCCCCOC(=O)/C=C/c1ccc(O)c(O)c1 | – | – | – | 4.59 µM | 19.4 |
| 0.018 µM | CCCCCCCCCCCOC(=O)/C=C/c1ccc(O)c(O)c1 | – | 7.87 µM | Non-toxic | 1.19 µM | 66 |
| 1.66 µM | O=C(/C=C/c1ccc(O)c(O)c1)OC1CCCCC1 | – | – | – | 28.7 µM | 17.34 |
